biological target: human SGLT2 (Homo sapiens (Human), UniProt P31639); experiment: hSGLT2 inhibitory activity, sodium-dependent 14C-AMG glucose transport assay in CHO cells expressing hSGLT2; assay type: cell-based; conditions: 14C-AMG uptake, CHO cells expressing hSGLT2, 37° C. for 2 h
Description: Human SGLT2 (hSGLT2) gene was amplified by PCR from cDNA-Human Adult Normal Tissue Kidney (Invitrogen, Carlsbad, Calif.). The hSGLT2 sequence was cloned into pcDNA3.1(+) for mammalian expression and were stably transfected into Chinese hamster ovary (CHO) cells. SGLT2-expressing clones were selected based on resistance to G418 antibiotic (Geneticin®, Invitrogen, Carlsbad, Calif.) and activity in the ^14C-α-methyl-D-glucopyranoside (^14C-AMG) uptake assay.
For sodium-dependent glucose transport assay, cells expressing hSGLT2 were seeded into a 96-well culture plate at a density of 5×10^4 cells/well in RPMI medium 1640 containing 10% fetal bovine serum. The cells were used 1 day after plating. They were incubated in pretreatment buffer (10 mM HEPES, 5 mM Tris, 140 mM choline chloride, 2 mM KCl, 1 mM CaCl2, and 1 mM MgCl2, pH 7.4) at 37° C. for 10 min. They were then incubated in uptake buffer (10 mM HEPES, 5 mM Tris, 140 mM NaCl, 2 mM KCl, 1 mM CaCl2, 1 mM MgCl2, and 1 mM ^14C-nonlabeled AMG pH 7.4) containing ^14C-labeled (8 uM) and inhibitor or dimethyl sulfoxide (DMSO) vehicle at 37° C. for 2 h. Cells were washed twice with washing buffer (pretreatment buffer containing 10 mM AMG at room temperature) and then the radioactivity was measured using a liquid scintillation counter.

human SGLT2, sequence (P31639 whole entry): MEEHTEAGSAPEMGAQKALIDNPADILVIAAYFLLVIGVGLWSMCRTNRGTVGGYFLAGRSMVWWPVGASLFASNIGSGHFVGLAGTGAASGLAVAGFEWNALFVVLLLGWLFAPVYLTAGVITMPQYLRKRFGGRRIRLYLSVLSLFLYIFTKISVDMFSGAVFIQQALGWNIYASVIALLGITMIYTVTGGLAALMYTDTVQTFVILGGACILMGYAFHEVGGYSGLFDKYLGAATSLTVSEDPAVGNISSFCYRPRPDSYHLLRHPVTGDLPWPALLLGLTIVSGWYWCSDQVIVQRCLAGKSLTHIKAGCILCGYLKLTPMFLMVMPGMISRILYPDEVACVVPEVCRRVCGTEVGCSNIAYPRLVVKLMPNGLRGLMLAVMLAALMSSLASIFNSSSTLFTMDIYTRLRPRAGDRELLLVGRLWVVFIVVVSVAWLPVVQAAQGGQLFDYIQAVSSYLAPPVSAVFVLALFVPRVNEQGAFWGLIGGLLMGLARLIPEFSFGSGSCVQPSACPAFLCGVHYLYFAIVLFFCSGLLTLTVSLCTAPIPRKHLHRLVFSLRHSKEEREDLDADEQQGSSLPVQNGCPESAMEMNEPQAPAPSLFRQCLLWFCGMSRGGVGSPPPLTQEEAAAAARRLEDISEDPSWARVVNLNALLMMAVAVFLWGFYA

Row | Structure (SMILES) | IC50 [nM]
1 | OC[C@H]1O[C@@H](c2ccc(Cl)c(Cc3nnc(-c4cnc(-c5ccncc5)s4)s3)c2)[C@H](O)[C@@H](O)[C@@H]1O [Example 14, (2S,3R,4R,5S,6R)-2-(4-Chloro-3-((5-(2-(pyridin-4-yl)thiazol-5-yl)-1,3,4-thiadiazol-2-yl)methyl)phenyl)-6-(hydroxymethyl)-tetrahydro-2H-pyran-3,4,5-triol] | 72.6
2 | OC[C@H]1O[C@@H](c2ccc(Cl)c(Cc3nnc(C4CCCC4)s3)c2)[C@H](O)[C@@H](O)[C@@H]1O [Example 19, (2S,3R,4R,5S,6R)-2-(4-Chloro-3-((5-cyclopentyl-1,3,4-thiadiazol-2-yl)methyl)phenyl)-6-(hydroxymethyl)tetrahydro-2H-pyran-3,4,5-triol] | 445
3 | CCCc1ccc(-c2nnc(Cc3cc(C4O[C@H](CO)[C@@H](O)[C@H](O)[C@H]4O)ccc3Cl)s2)cc1 (stereo partly drawn) [Example 23, (3R,4R,5S,6R)-2-(4-Chloro-3-((5-(4-propylphenyl)-1,3,4-thiadiazol-2-yl)methyl)phenyl)-6-(hydroxymethyl)-tetrahydro-2H-pyran-3,4,5-triol] | 24.9
4 | OC[C@H]1OC(c2ccc(Cl)c(Cc3nnc(C4CCCCC4)s3)c2)[C@H](O)[C@@H](O)[C@@H]1O (stereo partly drawn) [Example 24, (3R,4R,5S,6R)-2-(4-Chloro-3-((5-cyclohexyl-1,3,4-thiadiazol-2-yl)methyl)phenyl)-6-(hydroxymethyl)-tetrahydro-2H-pyran-3,4,5-triol] | 542
5 | CC1CCC(Cc2nnc(Cc3cc(C4O[C@H](CO)[C@@H](O)[C@H](O)[C@H]4O)ccc3Cl)s2)CC1 (stereo partly drawn) [Example 25, (3R,4R,5S,6R)-2-(4-Chloro-3-((5-((4-methylcyclohexyl)methyl)-1,3,4-thiadiazol-2-yl)methyl)phenyl)-6-(hydroxymethyl)-tetrahydro-2H-pyran-3,4,5-triol] | 460
6 | CC(Cc1nnc(Cc2cc(C3O[C@H](CO)[C@@H](O)[C@H](O)[C@H]3O)ccc2Cl)s1)c1ccccc1 (stereo partly drawn) [Example 26, (3R,4R,5S,6R)-2-(4-Chloro-3-((5-(2-phenylpropyl)-1,3,4-thiadiazol-2-yl)methyl)phenyl)-6-(hydroxymethyl)-tetrahydro-2H-pyran-3,4,5-triol] | 548
7 | CCCc1nnc(Cc2cc([C@@H]3O[C@H](CO)[C@@H](O)[C@H](O)[C@H]3O)ccc2Cl)s1 [Example 31, (2S,3R,4R,5S,6R)-2-(4-Chloro-3-((5-propyl-1,3,4-thiadiazol-2-yl)methyl)phenyl)-6-(hydroxymethyl)-tetrahydro-2H-pyran-3,4,5-triol] | 214
8 | CCCCc1nnc(Cc2cc([C@@H]3O[C@H](CO)[C@@H](O)[C@H](O)[C@H]3O)ccc2Cl)s1 [Example 32, (2S,3R,4R,5S,6R)-2-(3-((5-Butyl-1,3,4-thiadiazol-2-yl)methyl)-4-chlorophenyl)-6-(hydroxymethyl)-tetrahydro-2H-pyran-3,4,5-triol] | 379
9 | CCCCCc1nnc(Cc2cc([C@@H]3O[C@H](CO)[C@@H](O)[C@H](O)[C@H]3O)ccc2Cl)s1 [Example 33, (2S,3R,4R,5S,6R)-2-(4-Chloro-3-((5-pentyl-1,3,4-thiadiazol-2-yl)methyl)phenyl)-6-(hydroxymethyl)-tetrahydro-2H-pyran-3,4,5-triol] | 353
10 | CCCCCCCc1nnc(Cc2cc([C@@H]3O[C@H](CO)[C@@H](O)[C@H](O)[C@H]3O)ccc2Cl)s1 [Example 34, (2S,3R,4R,5S,6R)-2-(4-Chloro-3-((5-heptyl-1,3,4-thiadiazol-2-yl)methyl)phenyl)-6-(hydroxymethyl)-tetrahydro-2H-pyran-3,4,5-triol] | 122
11 | OC[C@H]1O[C@@H](c2ccc(Cl)c(Cc3nnc(-c4ccc(-c5ccccc5)o4)s3)c2)[C@H](O)[C@@H](O)[C@@H]1O [Example 37, (2S,3R,4R,5S,6R)-2-(4-Chloro-3-((5-(5-phenylfuran-2-yl)-1,3,4-thiadiazol-2-yl)methyl)phenyl)-6-(hydroxymethyl)-tetrahydro-2H-pyran-3,4,5-triol] | 10.6
12 | OC[C@H]1O[C@@H](c2ccc(Cl)c(Cc3nnc(C(F)(F)F)s3)c2)[C@H](O)[C@@H](O)[C@@H]1O [Example 38, (2S,3R,4R,5S,6R)-2-(4-Chloro-3-((5-(trifluoromethyl)-1,3,4-thiadiazol-2-yl)methyl)phenyl)-6-(hydroxymethyl)tetrahydro-2H-pyran-3,4,5-triol] | 155

Next, values leading:

Row | IC50 [nM] | Structure (SMILES)
13 | 257 | Cc1cc(-c2nnc(Cc3cc([C@@H]4O[C@H](CO)[C@@H](O)[C@H](O)[C@H]4O)ccc3Cl)s2)no1 [Example 12, (2S,3R,4R,5S,6R)-2-(4-Chloro-3-((5-(5-methylisoxazol-3-yl)-1,3,4-thiadiazol-2-yl)methyl)phenyl)-6-(hydroxymethyl)tetrahydro-2H-pyran-3,4,5-triol]
14 | 21.8 | OC[C@H]1O[C@@H](c2ccc(Cl)c(Cc3nnc(-c4cscn4)s3)c2)[C@H](O)[C@@H](O)[C@@H]1O [Example 13, (2S,3R,4R,5S,6R)-2-(4-Chloro-3-((5-(thiazol-4-yl)-1,3,4-thiadiazol-2-yl)methyl)phenyl)-6-(hydroxymethyl)tetrahydro-2H-pyran-3,4,5-triol]
15 | 30.3 | OC[C@H]1O[C@@H](c2ccc(Cl)c(Cc3nnc(-c4ccccn4)s3)c2)[C@H](O)[C@@H](O)[C@@H]1O [Example 15, (2S,3R,4R,5S,6R)-2-(4-Chloro-3-((5-(pyridin-2-yl)-1,3,4-thiadiazol-2-yl)methyl)phenyl)-6-(hydroxymethyl)tetrahydro-2H-pyran-3,4,5-triol]
16 | 97.4 | Cc1ccc(-c2nnc(Cc3cc([C@@H]4O[C@H](CO)[C@@H](O)[C@H](O)[C@H]4O)ccc3Cl)s2)cn1 [Example 16, (2S,3R,4R,5S,6R)-2-(4-Chloro-3-((5-(6-methylpyridin-3-yl)-1,3,4-thiadiazol-2-yl)methyl)phenyl)-6-(hydroxymethyl)-tetrahydro-2H-pyran-3,4,5-triol]
17 | 562 | OC[C@H]1O[C@@H](c2ccc(Cl)c(Cc3nnc(-c4ccc5ccccc5n4)s3)c2)[C@H](O)[C@@H](O)[C@@H]1O [Example 17, (2S,3R,4R,5S,6R)-2-(4-Chloro-3-((5-(quinolin-2-yl)-1,3,4-thiadiazol-2-yl)methyl)phenyl)-6-(hydroxymethyl)-tetrahydro-2H-pyran-3,4,5-triol]
18 | 81.6 | OC[C@H]1O[C@@H](c2ccc(Cl)c(Cc3nnc(-c4cc5ccccc5cn4)s3)c2)[C@H](O)[C@@H](O)[C@@H]1O [Example 18, (2S,3R,4R,5S,6R)-2-(4-Chloro-3-((5-(isoquinolin-3-yl)-1,3,4-thiadiazol-2-yl)methyl)phenyl)-6-(hydroxymethyl)-tetrahydro-2H-pyran-3,4,5-triol]
19 | 53 | OC[C@H]1OC(c2ccc(Cl)c(Cc3nnc(-c4ccncc4)s3)c2)[C@H](O)[C@@H](O)[C@@H]1O (stereo partly drawn) [Example 20, (3R,4R,5S,6R)-2-(4-Chloro-3-((5-(pyridin-4-yl)-1,3,4-thiadiazol-2-yl)methyl)phenyl)-6-(hydroxymethyl)-tetrahydro-2H-pyran-3,4,5-triol]
20 | 45.3 | OC[C@H]1OC(c2ccc(Cl)c(Cc3nnc(-c4cccnc4)s3)c2)[C@H](O)[C@@H](O)[C@@H]1O (stereo partly drawn) [Example 21, (3R,4R,5S,6R)-2-(4-Chloro-3-((5-(pyridin-3-yl)-1,3,4-thiadiazol-2-yl)methyl)phenyl)-6-(hydroxymethyl)-tetrahydro-2H-pyran-3,4,5-triol]
21 | 103 | Cc1ccc(-c2nnc(Cc3cc(C4O[C@H](CO)[C@@H](O)[C@H](O)[C@H]4O)ccc3Cl)s2)cc1 (stereo partly drawn) [Example 22, (3R,4R,5S,6R)-2-(4-chloro-3-((5-p-tolyl-1,3,4-thiadiazol-2-yl)methyl)phenyl)-6-(hydroxymethyl)-tetrahydro-2H-pyran-3,4,5-triol]
22 | 730 | OC[C@H]1OC(c2ccc(Cl)c(Cc3nnc(/C=C/c4ccccc4)s3)c2)[C@H](O)[C@@H](O)[C@@H]1O (stereo partly drawn) [Example 27, (3R,4R,5S,6R,E)-2-(4-Chloro-3-((5-styryl-1,3,4-thiadiazol-2-yl)methyl)phenyl)-6-(hydroxymethyl)-tetrahydro-2H-pyran-3,4,5-triol]
23 | 16.6 | OC[C@H]1O[C@@H](c2ccc(Cl)c(Cc3nnc(-c4ccccc4)s3)c2)[C@H](O)[C@@H](O)[C@@H]1O [Example 28, (2S,3R,4R,5S,6R)-2-(4-Chloro-3-((5-phenyl-1,3,4-thiadiazol-2-yl)methyl)phenyl)-6-(hydroxymethyl)-tetrahydro-2H-pyran-3,4,5-triol]
24 | 126 | OC[C@H]1O[C@@H](c2ccc(Cl)c(Cc3nnc(-c4ccc(Cl)cc4)s3)c2)[C@H](O)[C@@H](O)[C@@H]1O [Example 29, (2S,3R,4R,5S,6R)-2-(4-chloro-3-((5-(4-Chlorophenyl)-1,3,4-thiadiazol-2-yl)methyl)phenyl)-6-(hydroxymethyl)-tetrahydro-2H-pyran-3,4,5-triol]
25 | 249 | OC[C@H]1O[C@@H](c2ccc(Cl)c(Cc3nnc(-c4cc5ccccc5o4)s3)c2)[C@H](O)[C@@H](O)[C@@H]1O [Example 30, (2S,3R,4R,5S,6R)-2-(3-((5-(Benzofuran-2-yl)-1,3,4-thiadiazol-2-yl)methyl)-4-chlorophenyl)-6-(hydroxymethyl)-tetrahydro-2H-pyran-3,4,5-triol]

From US8541380B2, “C-aryl glucoside SGLT2 inhibitors and pharmaceutical compositions comprising same” (Green Cross Corporation, priority 2009, dated 2013)
